Experimental data taken from patent publication US20260216172A1, “COMPOUNDS AND METHOD FOR TREATING HIV INFECTION” (The United States of America, as represented by the …, priority 2023, published 2026).
Like-named read-outs stand apart in the source and are kept apart here.

Key:
[1] = Cytotoxicity in PBMCs (XTT); assay type: cell-based; settings: human, PHA-P stimulated PBMCs pooled from three donors, read-out: TC50
Description: (§1) (b) Anti-HIV-1 Cytoprotection Assay in PBMCs: PHA-P stimulated PBMCs from three donors were pooled together and re-suspended in fresh tissue culture medium at 1×10^6 cells/ml and plated in the interior wells of a 96 well round bottom microplate at 50 μL/well. A 100 μL volume of 2× concentrations of compound-containing media were transferred to the round-bottom 96-well plate containing the cells in triplicate. Fifty microliters (50 μL) of HIV-1 at a pre-determined dilution was added. Each plate contained cell control wells and virus control wells in parallel with the experimental wells. After 7 days in culture, efficacy was evaluated by measuring the reverse transcriptase in the culture supernatants and the cells were stained with the tetrazolium dye XTT to evaluate cytotoxicity.
as §1, with “This Example illustrates anti-HIV cytoprotection provided by compounds” for “(b) Anti-HIV-1 Cytoprotection Assay”, “accordance with another aspect of the invention, namely in PBMCs.” for “PBMCs:”

HIV-1RF = experiment: Anti-HIV cytoprotection evaluation in CEM-SS cells (CPE inhibition, XTT); assay type: cell-based; settings: Human immunodeficiency virus 1, 144 h, 6 days
Description: (§2) (a) Anti-HIV Cytoprotection Evaluation: Inhibition of virus-induced cytopathic effects (CPE) and cell viability following HIV replication in CEM-SS cells were measured by the use of XTT tetrazolium dye. CEM-SS cells (2.5×10^3 cells per well) were seeded in 96-well U-bottomed tissue culture plates in RPMI medium supplemented with 10% FBS, 2 mM L-glutamine, 100 U/ml penicillin and 100 μg/ml streptomycin. Serially diluted compounds (6 concentrations) and HIV-1RF diluted to a pre-determined titer to yield 85 to 95% cell killing at 6 days post-infection were be added to the plate. AZT was evaluated in parallel as a positive control. Following incubation at 37° C., 5% CO2 for six days, cell viability was measured by XTT staining. The optical density of the cell culture plate will be determined spectrophotometrically at 450 and 650 nm using Softmax Pro 4.6 software. Percent CPE reduction of the virus-infected wells and the percent cell viability of uninfected drug control wells was calculated to define the EC50, TC50 and therapeutic index (TI50) using Microsoft Excel Xlfit4.
as §2, with “Inhibition” for “(a) Anti-HIV Cytoprotection Evaluation: Inhibition”, “by” for “by the use of”, “wells were” for “wells was”

HIV-192RW009 = experiment: Anti-HIV-1 cytoprotection assay in PBMCs (reverse transcriptase in supernatant); assay type: cell-based; settings: Human immunodeficiency virus 1, 168 h; PBMC, HIV-192RW009, 7 days
Description: as §1

[2] = Cell viability of uninfected drug control wells, CEM-SS cells (XTT); assay type: cell-based; settings: human, read-out: TC50
Description: as §2
as §2, with “Inhibition” for “(a) Anti-HIV Cytoprotection Evaluation: Inhibition”, “by” for “by the use of”, “wells were” for “wells was”

PBMCs = experiment: Cytotoxicity in PBMCs (XTT); assay type: cell-based; settings: PBMCs, read-out: TC50 (the source's name)
Description: as §1
as §1, with “This Example illustrates anti-HIV cytoprotection provided by compounds” for “(b) Anti-HIV-1 Cytoprotection Assay”, “accordance with another aspect of the invention, namely in PBMCs.” for “PBMCs:”

HIV-1 UG92001 (D) = experiment: Anti-HIV-1 cytoprotection assay in PBMCs, isolate UG92001 (D); assay type: cell-based; settings: Human immunodeficiency virus 1, PBMC, CXCR4/CCR5
Description: as §1, with “This Example illustrates anti-HIV cytoprotection provided by compounds” for “(b) Anti-HIV-1 Cytoprotection Assay”, “accordance with another aspect of the invention, namely in PBMCs.” for “PBMCs:”

HIV-1 RW92009 (A) = experiment: Anti-HIV-1 cytoprotection assay in PBMCs, isolate RW92009 (A); assay type: cell-based; settings: Human immunodeficiency virus 1, PBMC, CXCR4/CCR5
Description: as §1, with “This Example illustrates anti-HIV cytoprotection provided by compounds” for “(b) Anti-HIV-1 Cytoprotection Assay”, “accordance with another aspect of the invention, namely in PBMCs.” for “PBMCs:”

HIV-1 BCF01 (O) = experiment: Anti-HIV-1 cytoprotection assay in PBMCs, isolate BCF01 (O); assay type: cell-based; settings: Human immunodeficiency virus 1, CCR5
Description: as §1, with “This Example illustrates anti-HIV cytoprotection provided by compounds” for “(b) Anti-HIV-1 Cytoprotection Assay”, “accordance with another aspect of the invention, namely in PBMCs.” for “PBMCs:”

HIV-1 RU132 (G) = experiment: Anti-HIV-1 cytoprotection assay in PBMCs, isolate RU132 (G); assay type: cell-based; settings: Human immunodeficiency virus 1, CCR5
Description: as §1, with “This Example illustrates anti-HIV cytoprotection provided by compounds” for “(b) Anti-HIV-1 Cytoprotection Assay”, “accordance with another aspect of the invention, namely in PBMCs.” for “PBMCs:”

HIV-1 HT92599 (B) = experiment: Anti-HIV-1 cytoprotection assay in PBMCs, isolate HT92599 (B); assay type: cell-based; settings: Human immunodeficiency virus 1, PBMC, CXCR4
Description: as §1, with “This Example illustrates anti-HIV cytoprotection provided by compounds” for “(b) Anti-HIV-1 Cytoprotection Assay”, “accordance with another aspect of the invention, namely in PBMCs.” for “PBMCs:”

HIV-1 BR93020 (F) = experiment: Anti-HIV-1 cytoprotection assay in PBMCs, isolate BR93020 (F); assay type: cell-based; settings: Human immunodeficiency virus 1, CCR5
Description: as §1, with “This Example illustrates anti-HIV cytoprotection provided by compounds” for “(b) Anti-HIV-1 Cytoprotection Assay”, “accordance with another aspect of the invention, namely in PBMCs.” for “PBMCs:”

HIV-1 CMU08 (E) = experiment: Anti-HIV-1 cytoprotection assay in PBMCs, isolate CMU08 (E); assay type: cell-based; settings: Human immunodeficiency virus 1, PBMC, CXCR4
Description: as §1, with “This Example illustrates anti-HIV cytoprotection provided by compounds” for “(b) Anti-HIV-1 Cytoprotection Assay”, “accordance with another aspect of the invention, namely in PBMCs.” for “PBMCs:”

[3] = Pharmacokinetic study in male CD-1 mice; assay type: in vivo; settings: for tlast / AUC0-inf / AUC(0-t) / Cmax / MRT inf / Tmax / half-life: 18 and 19 measured as metabolites; for AUC0-inf: 5 mg/kg
Description: Male CD-1 mice weighing between […] were dosed via orbital sinus injection and blood was collected via submandibular vein. IV dosing solutions were prepared in DMSO:PEG400:Saline (5:35:60, v/v/v) at 1 mg/mL concentration of the prodrug. Blood samples (50 μL each time point) were obtained via Culex at predetermined time points (0, 5, 15, 30, 60, 120, 240, 360, 480 and 1440 min) after dosing. Plasma was obtained by centrifugation within 30 minutes after collection and aliquots of dosing solutions were taken and analyzed at the same time with plasma samples using a validated LC-MS/MS method developed on a Shimadzu HPLC system interfaced to a Sciex QTRAP 5500 mass spectrometer. Eluents were gradient mixtures of water and acetonitrile with 0.10% formic acid. HPLC column was ACE 5 C8, 50×2.1 mm, […]. PK parameters of the analytes were obtained using Phoenix®, WinNonlin® software (version 8.1).
The study was performed in male CD-1 mice to assess pharmacokinetics (PK) of prodrug 17 and its metabolites 18 and 19.

HIV-1 ZA97009 (C) = experiment: Anti-HIV-1 cytoprotection assay in PBMCs, isolate ZA97009 (C); assay type: cell-based; settings: Human immunodeficiency virus 1, CCR5
Description: as §1, with “This Example illustrates anti-HIV cytoprotection provided by compounds” for “(b) Anti-HIV-1 Cytoprotection Assay”, “accordance with another aspect of the invention, namely in PBMCs.” for “PBMCs:”

[4] = system: simian immunodeficiency virus (SIV); settings: SAMT-247 in combination with ΔV1DNA-ALVAC/gp120/alum vaccine; Rahman et al., Nature Microbiology 8; cited from earlier work
[5] = PBMC, HIV-192RW009, 7 days, XTT
[6] = mouse, in vivo, single IV bolus 5 mg/kg of compound 17, male CD-1 mice, plasma
[7] = single IV bolus 5 mg/kg of compound 17, male CD-1 mice, plasma
[8] = male, CD-1, mouse, in vivo, iv, single IV bolus 5 mg/kg of compound 17, male CD-1 mice, plasma, read-out: AUC0-inf

CCCC(=O)OCSc1ccccc1C(=O)NCCn1cc(C(=O)NCc2ccccn2)c(=O)c2cc3c(cc21)OCO3 [Compound 5, ((2-((2-(8-oxo-7-((pyridin-2-ylmethyl)carbamoyl)-[1,3]dioxolo[4,5-g]quinolin-5(8H)-yl)ethyl)carbamoyl)phenyl)thio)methyl butyrate]
CC50 at 7 days [1, 5]: > 100 µM | EC50 (HIV-1RF): 0.54 µM | EC50 (HIV-192RW009): 0.91 µM | CC50 at 6 days [2]: > 100 µM

Cc1cccc(CNC(=O)c2cn(CCNC(=O)c3ccccc3Sc3c([N+](=O)[O-])ncn3C)c3cc4c(cc3c2=O)OCO4)n1 [Compound 6, 5-(2-(2-((1-methyl-4-nitro-1H-imidazol-5-yl)thio)benzamido)ethyl)-N-((6-methylpyridin-2-yl)methyl)-8-oxo-5,8-dihydro-[1,3]dioxolo[4,5-g]quinoline-7-carboxamide]
CC50 at 7 days [1, 5]: > 100 µM | EC50 (HIV-192RW009): 30.9 µM

CCCC(=O)OCSc1ccccc1C(=O)NCCn1cc(C(=O)NCc2cccc(C)n2)c(=O)c2cc3c(cc21)OC(F)(F)O3 [Compound 17, ((2-((2-(2,2-difluoro-7-(((6-methylpyridin-2-yl)methyl)carbamoyl)-8-oxo-[1,3]dioxolo[4,5-g]quinolin-5(8H)-yl)ethyl)carbamoyl)phenyl)thio)methyl butyrate]
CC50 (PBMCs; line of isolate BCF01 (O)): > 100 µM | CC50 (PBMCs; line of isolate BR93020 (F)): > 100 µM | CC50 (PBMCs; line of isolate HT92599 (B)): > 100 µM | CC50 (PBMCs; line of isolate RU132 (G)): > 100 µM | CC50 (PBMCs; line of isolate RW92009 (A)): > 100 µM | CC50 (PBMCs; line of isolate UG92001 (D)): > 100 µM | CC50 (PBMCs; line of isolate ZA97009 (C)): > 100 µM | CC50 at 7 days ([1]; PBMCs, line of isolate CMU08 (E)): > 100 µM | EC50 (HIV-1 UG92001 (D)): 5.14 µM | EC50 (HIV-1RF): 1.48 µM | EC50 (HIV-1 RW92009 (A)): 4.26 µM | EC50 (HIV-1 BCF01 (O)): 7.79 µM | EC50 (HIV-1 RU132 (G)): 6.85 µM | EC50 (HIV-1 HT92599 (B)): 6.52 µM | EC50 (HIV-1 BR93020 (F)): 2.01 µM | EC50 (HIV-1 CMU08 (E)): 5.23 µM | clearance ([3]; mouse, in vivo, single IV bolus 5 mg/kg of compound 17, male CD-1 mice): 136 mL/min/kg | C0 [3, 6]: 1910 ng/mL | Vd ([3]; mouse, in vivo, single IV bolus 5 mg/kg of compound 17, male CD-1 mice, read-out: Vss): 9.6 L/kg | tlast [3, 7]: 8.00 h | EC50 (HIV-1 ZA97009 (C)): 10.7 µM | CC50 at 6 days [2]: > 100 µM

CCCC(=O)OCSc1ccccc1C(=O)NCCn1ccc(=O)c2cc3c(cc21)OCO3 [Compound 2, ((2-((2-(8-oxo-[1,3]dioxolo[4,5-g]quinolin-5(8H)-yl)ethyl)carbamoyl)phenyl)thio)methyl butyrate]
CC50 at 7 days [1, 5]: > 100 µM | EC50 (HIV-1RF): 1.15 µM | EC50 (HIV-192RW009): 0.48 µM | CC50 at 6 days [2]: 32.2 µM

CCCC(=O)OCSc1ccccc1C(=O)NCCn1ccc(=O)c2cc(F)ccc21 [Compound 1, ((2-((2-(6-fluoro-4-oxoquinolin-1(4H)-yl)ethyl)carbamoyl)phenyl)thio)methyl butyrate]
CC50 at 7 days [1, 5]: > 100 µM | EC50 (HIV-1RF): 0.56 µM | EC50 (HIV-192RW009): 2.48 µM | CC50 at 6 days [2]: 56.2 µM

Cc1cccc(CNC(=O)c2cn(CCNC(=O)c3ccccc3S)c3cc4c(cc3c2=O)OC(F)(F)O4)n1 [Compound 19]
AUC0-inf [3, 8]: 13.1 ng·h/mL | AUC(0-t) [3, 6]: 12.8 ng·h/mL | Cmax [3, 6]: 46.9 ng/mL | MRT inf [3, 6]: 19.8 min | Tmax [3, 6]: 4.98 min | half-life [3, 6]: 21 min | tlast [3, 7]: 2.00 h | AUC0-inf [3, 7]: 12.8 ng·h/mL

Cn1cnc([N+](=O)[O-])c1Sc1ccccc1C(=O)NCCn1ccc(=O)c2cc3c(cc21)OCO3 [Compound 3, 2-((1-methyl-4-nitro-1H-imidazol-5-yl)thio)-N-(2-(8-oxo-[1,3]dioxolo[4,5-g]quinolin-5(8H)-yl)ethyl)benzamide]
CC50 at 7 days [1, 5]: > 100 µM | EC50 (HIV-192RW009): 17.7 µM

CC(=O)Sc1ccccc1C(=O)NCCC(N)=O [SAMT-247, 3-(S-acetylthiosalicyloyl)aminopropamide or N-[2-ccetylthiobenzoyl]-β-alaninamide]
female macaques protected against vaginal acquisition of SIV [4]: 16 out of 20

Cc1cccc(CNC(=O)c2cn(CCNC(=O)c3ccccc3Sc3c([N+](=O)[O-])ncn3C)c3cc4c(cc3c2=O)OC(F)(F)O4)n1 [Compound 18, 2,2-difluoro-5-(2-(2-((1-methyl-4-nitro-1H-imidazol-5-yl)thio)benzamido)ethyl)-N-((6-methylpyridin-2-yl)methyl)-8-oxo-5,8-dihydro-[1,3]dioxolo[4,5-g]quinoline-7-carboxamide]
AUC0-inf [3, 8]: 42.5 ng·h/mL | Exposure (AUC0-t) lower than that of 17 ([3]; metabolite versus 17 after single IV bolus 5 mg/kg of 17, male mice): approximately 17 fold | AUC(0-t) [3, 6]: 34.8 ng·h/mL | Cmax [3, 6]: 75.6 ng/mL | MRT inf [3, 6]: 224 min | Tmax [3, 6]: 4.98 min | half-life [3, 6]: 164 min | tlast [3, 7]: 8.00 h | AUC0-inf [3, 7]: 34.8 ng·h/mL

CCCC(=O)OCSc1ccccc1C(=O)NCCn1cc(C(=O)NCc2cccc(C)n2)c(=O)c2cc3c(cc21)OCO3 [Compound 4, ((2-((2-(7-(((6-methylpyridin-2-yl)methyl)carbamoyl)-8-oxo-[1,3]dioxolo[4,5-g]quinolin-5(8H)-yl)ethyl)carbamoyl)phenyl)thio)methyl butyrate]
CC50 at 7 days [1, 5]: > 100 µM | EC50 (HIV-1RF): 0.48 µM | EC50 (HIV-192RW009): 1.09 µM | CC50 at 6 days [2]: > 100 µM
